pIC50: −log10 of the molar value. In brackets after ≈: the same amount, converted by molar mass.
What was measured:
hTRPV3 [1] = target: T1, hTRPV3 (Homo sapiens (Human), UniProt Q8NET8); test: Semi-auto patch clamp recording in nHEK cells (WT or TRPV3-mu transfected); type: cell-based
Method: Compounds were tested at room temperature using the whole-cell patch clamp technique with a HEKA EPC 10 usb patch-clamp amplifier (HEKA Elektronik, Germany). Output signals from the amplifier were digitized and recorded with PatchMaster (v2x90.5 HEKA Elektronik, Germany). For quality control, the minimum seal resistance was set at 100 MΩ, and the outward current was stabilized with at least 1 nA of rectifying current at +80 mV while the inward current was stabilized with at least 300 pA of rectifying current at −80 mV.
NPC-1 Chips (Nanion, Germany) were used to trap a single cell. For both WT or transfected cells, chips of the categories 2-3 MOhm and 3-5 MOhm were used. Chips are disposable and each recording required a new chip. 5 μl of internal solution was applied in the inner pore of the chip, then it was screwed on top of the inner electrode. The upper unit of the patch lamp device was assembled over the chip, and 15 μl external buffer were added between the chip pore and the external electrode.
Basal nHEK cells at Passage 2 or 3 and at the density of 70-90% confluency were used for patch clamp or transfection. For patch-clamp, cells were suspended in TrypLE enzyme for 5 min in 37° C., and then harvested using KBM-Gold media. Cells were then centrifuged for 5 min at 110 g RT. Supernatant was then removed, and cells were re-suspended in the KBM-Gold media and maintained at RT until patch-clamp. After patch clamp system was initialized, and once cell was capture on the chip, media was washed together with free cells, and replaced by external buffer. For TRPV3-mu transfected cells, cells were maintained in KBM-Gold media containing 3 uM of the tested antagonist.
nHEK cells were transfected according to SOP KP-Lab-001.For patch clamp, cells were seeded in 12 well plate and harvested 24 hours after transfection according to the SOP section 2.8.2 “Cell preparation for patch clamp”.
For WT nHEK cells, the “intermediate protocol” in the semi-automatic Port-a-Patch device software was selected based on the parameters: initial sealing, measured by resistance, and its ability to maintain sealing along with assay.
The procedure was started with the “Startup procedure” protocol that validates chip contact and adjusts offset, then after the system was ready, 5 μl of cells suspended in extracellular buffer was added and the intermediate protocol was automatically launched.
When a cell was trapped by vacuum, the value “v-membrane” was raised by 100%, then 15 μl of sealing solution was added. The procedure continued automatically through all its steps until the final step “maintain the whole-cell”. At this step, the sealing solution was washed using three 20 μl washes with an external buffer, and the values C-fast and C-slow were adjusted twice using the “Auto E” buttons.
The sensitivity of reading was adjusted by changing the gain from 2.0 to 0.5.
To initiate recording, the “Ramp” protocol was initiated, and currents were recorded for several minutes until the signal remained stable for both inward and outward currents.
For TRPV3-mu transfected nHEK cells, a similar procedure was used, but with “Fragile protocol”, and the addition of the antagonist at the step of sealing.
Nanion's system automatically maintained cells in the holding potential of −40 mV. Then the voltage was ramped from […] for 160 ms. Finally, the voltage was stepped back to the holding potential (−40 mV). This voltage command protocol was repeated in cycles of 400 ms (FIG. 1).
The solution was then gently mixed and current recording resumed.
Within each cellular recording, the percent of control values were calculated for each test compound concentration-current response based on peak current in the presence of the agonist and full response.
Target sequence in this assay (Q8NET8 whole entry, looked up): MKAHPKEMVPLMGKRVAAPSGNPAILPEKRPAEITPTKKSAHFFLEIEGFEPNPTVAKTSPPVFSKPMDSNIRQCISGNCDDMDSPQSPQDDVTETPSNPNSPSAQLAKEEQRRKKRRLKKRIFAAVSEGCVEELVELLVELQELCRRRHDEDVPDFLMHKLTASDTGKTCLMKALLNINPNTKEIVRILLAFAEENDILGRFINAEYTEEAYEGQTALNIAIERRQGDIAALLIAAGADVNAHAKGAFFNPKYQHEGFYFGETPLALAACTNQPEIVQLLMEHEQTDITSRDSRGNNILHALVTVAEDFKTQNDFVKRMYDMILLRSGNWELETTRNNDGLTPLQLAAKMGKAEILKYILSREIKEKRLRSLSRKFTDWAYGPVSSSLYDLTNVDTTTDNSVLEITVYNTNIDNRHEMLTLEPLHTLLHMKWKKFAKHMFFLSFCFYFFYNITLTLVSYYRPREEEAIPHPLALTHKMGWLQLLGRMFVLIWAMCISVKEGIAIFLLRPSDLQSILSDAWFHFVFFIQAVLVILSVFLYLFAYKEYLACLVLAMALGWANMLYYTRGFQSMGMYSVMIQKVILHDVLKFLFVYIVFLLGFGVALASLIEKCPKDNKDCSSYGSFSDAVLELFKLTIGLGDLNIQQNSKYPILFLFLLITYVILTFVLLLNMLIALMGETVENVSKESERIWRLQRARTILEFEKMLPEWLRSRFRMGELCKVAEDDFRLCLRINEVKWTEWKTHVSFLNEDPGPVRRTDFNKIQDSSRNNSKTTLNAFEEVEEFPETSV

hTRPV3 [2] = target: T1, hTRPV3; test: Whole-cell patch clamp, hTRPV3 Phase 1 / Phase 2 currents; type: cell-based; conditions: for IC50: human TRPV3; for pIC50: inward, whole-cell patch clamp
Summary of the method: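 Currents are activated by 20 μM 2-APB or by perfusate at 28 °C or warmer, in Ringer's solution, and quantified at ±80 mV.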
Target sequence in this assay (Q8NET8 whole entry): as the sequence (Q8NET8 whole entry, looked up) above

human hERG channels = human hERG channels (Homo sapiens (Human), UniProt Q12809); test: hERG assay (patch clamp, CHO cells); type: cell-based; conditions: (PL); read-out: hERG (nM) (PL)
Sequence of human hERG channels (Q12809 whole entry): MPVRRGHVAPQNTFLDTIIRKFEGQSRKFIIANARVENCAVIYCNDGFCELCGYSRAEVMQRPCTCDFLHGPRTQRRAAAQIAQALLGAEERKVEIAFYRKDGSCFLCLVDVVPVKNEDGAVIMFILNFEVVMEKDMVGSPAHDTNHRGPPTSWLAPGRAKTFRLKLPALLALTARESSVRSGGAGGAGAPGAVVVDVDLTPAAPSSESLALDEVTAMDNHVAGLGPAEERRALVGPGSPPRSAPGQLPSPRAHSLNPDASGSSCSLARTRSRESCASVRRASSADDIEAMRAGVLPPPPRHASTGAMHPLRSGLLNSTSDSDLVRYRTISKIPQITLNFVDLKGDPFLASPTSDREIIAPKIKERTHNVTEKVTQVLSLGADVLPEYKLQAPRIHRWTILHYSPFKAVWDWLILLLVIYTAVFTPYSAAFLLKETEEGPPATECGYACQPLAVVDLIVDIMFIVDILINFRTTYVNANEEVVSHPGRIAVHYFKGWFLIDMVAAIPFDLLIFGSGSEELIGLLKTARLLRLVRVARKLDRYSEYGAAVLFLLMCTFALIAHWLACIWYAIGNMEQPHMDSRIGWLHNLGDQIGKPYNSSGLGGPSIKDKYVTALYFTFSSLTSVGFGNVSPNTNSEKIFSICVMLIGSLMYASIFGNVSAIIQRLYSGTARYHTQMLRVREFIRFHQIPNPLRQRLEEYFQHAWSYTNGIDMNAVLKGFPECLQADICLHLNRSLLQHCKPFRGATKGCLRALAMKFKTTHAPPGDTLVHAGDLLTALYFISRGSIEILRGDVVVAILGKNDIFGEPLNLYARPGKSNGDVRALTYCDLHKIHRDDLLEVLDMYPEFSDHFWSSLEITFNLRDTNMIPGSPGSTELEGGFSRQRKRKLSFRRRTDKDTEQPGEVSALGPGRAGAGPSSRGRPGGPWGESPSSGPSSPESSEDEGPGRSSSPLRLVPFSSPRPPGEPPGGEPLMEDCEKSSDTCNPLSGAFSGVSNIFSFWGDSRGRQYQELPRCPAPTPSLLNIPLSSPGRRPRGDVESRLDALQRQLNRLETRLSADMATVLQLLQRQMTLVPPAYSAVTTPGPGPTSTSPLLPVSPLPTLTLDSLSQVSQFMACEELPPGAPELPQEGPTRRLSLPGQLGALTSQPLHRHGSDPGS
Method: hERG assay: Briefly, cells from a stable CHO cell line expressing human hERG channels were plated onto glass coverslips and used in patch clamp assays on the same day. After seal formation and break-in to whole-cell configuration, voltage steps were applied as follows: from the holding potential of −90 mV, a 2 second long step to +40 mV was applied, followed by a 1.5 second step to −50 mV. These steps were applied once every 5 seconds. The hERG current was measured at the peak of the outward tail current at −50 mV. The pipette solution was potassium aspartate based and the external solution was normal Ringer's.
All currents were recorded in whole-cell configuration using an Axopatch 200B controlled by pClamp 10 software (Molecular Devices). In each cell, when the current stabilized, the compound was perfused locally onto the cell. Two to three concentrations of the test compound were applied to each cell. At the end of compound testing, 10 μM verapamil was applied to completely block hERG currents and assess leak current.
Data were analyzed by computing the degree of current block after compound addition compared with the unblocked current amplitude. The unblocked current was predicted from the interpolation between the current amplitude prior to compound addition and after compound washout. The resulting percent block at each concentration was used to make a concentration-response plot and fitted to the Hill equation: percent block=minimum block+(maximum block-minimum block)/(1+10^(Hill slope*(log IC50−concentration))).

[3] = Aqueous solubility assay in Normal Ringer Solution; conditions: Normal Ringer Solution, saline or isotonic, kinetic from dmso stock
Method: Following vortex and incubation for a sufficient time (e.g. 40 minutes at room temperature), solutions were filtered, quenched with acetonitrile, and analyzed by Liquid Chromotography. Solubility Limits were determined by comparison to a standard curve.

[4] = Metabolic Stability assay, rat liver microsomes; type: in vitro ADME; conditions: read-out: LM T1/2 (min) rat
Summary of the method: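 Reactions in human or rat liver microsomes at 37 °C were started with an NADPH-regenerating system, using 1 μM compound initially. Samples were taken at 0, 7, 15, 30 and 60 min, quenched in ice-cold acetonitrile/MeOH/H2O, and quantified by HPLC/MS/MS.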

[5] = Phase 1 current, read-out: hTRPV3 (nM) Phase 1
[6] = Phase 1 current, read-out: hTRPV3 Patch P1 Inwd

Row | SMILES | pIC50 (hTRPV3 [1]) | IC50 (hTRPV3 [2]; [5]) [nM] | pIC50 (hTRPV3 [2]; [6]) | IC50 (human hERG channels) [nM] | solubility at 40 min [3] [µM] | half-life at 1 μM [4] [min] | further results
1 | CNc1cncc(C(=O)N2CCC(c3ccc(-c4ccccc4C(C)C)cc3CO)C2)n1 (stereo not drawn) [KM-069, [3-(3-Hydroxymethyl-2′-isopropyl-biphenyl-4-yl)-pyrrolidin-1-yl]-(6-methylamino-pyrazin-2-yl)-methanone] | 7.00 to 8.00 | – | – | – | – | – | –
2 | Cc1nc(C(=O)N2CCC(c3ccc(-c4ccc(F)cc4C4CC4)cc3CO)C2)ccc1O (stereo not drawn) [KM-084] | 7.00 to 8.00 | – | – | – | – | – | –
3 | COc1cncc(C(=O)N2CCC(c3ccc(-c4cccc5c4CCC5)cc3CO)C2)n1 (stereo not drawn) [KM-071, [3-(2-Hydroxymethyl-4-indan-4-yl-phenyl)-pyrrolidin-1-yl]-(6-methoxy-pyrazin-2-yl)-methanone] | 7.00 to 8.00 | – | – | – | – | – | –
4 | CNc1cncc(C(=O)N2CC[C@H](c3ccc(-c4ccccc4C4CC4)cc3CO)C2)n1 (stereo in doubt) [KM-054-E1, [3-(2′-Cyclopropyl-3-hydroxymethyl-biphenyl-4-yl)-pyrrolidin-1-yl]-(6-methylamino-pyrazin-2-yl)-methanone] | > 8.00 | – | – | – | – | – | –
5 | COCc1cncc(C(=O)N2CCC(c3ccc(-c4ccccc4C4CC4)cc3CO)C2)n1 (stereo not drawn) [KM-070, [3-(2′-Cyclopropyl-3-hydroxymethyl-biphenyl-4-yl)-pyrrolidin-1-yl]-(6-methoxymethyl-pyrazin-2-yl)-methanone] | 7.00 to 8.00 | – | – | – | – | – | –
6 | O=C(c1cnccn1)N1CCC(c2ccc(-c3ccccc3C3CC3)cc2CO)C1 (stereo not drawn) [Compound 2-105, (3-(2′-cyclopropyl-3-(hydroxymethyl)biphenyl-4-yl)pyrrolidin-1-yl)(pyrazin-2-yl)methanone] | – | 61.2 | 7.00 to 8.00 | 11700 | > 21 | 12.9 | –
7 | COc1cncc(C(=O)N2CC[C@H](c3ccc(-c4ccccc4C4CC4)cc3CO)C2)n1 (stereo in doubt) [KM-031-E1, [3-(2′-Cyclopropyl-3-hydroxymethyl-biphenyl-4-yl)-pyrrolidin-1-yl]-(6-methoxy-pyrazin-2-yl)-methanone] | 7.00 to 8.00 | – | – | – | – | – | –
8 | COCc1cccc(C(=O)N2CC[C@H](c3ccc(-c4ccccc4C4CC4)cc3CO)C2)n1 (stereo in doubt) [KM-036-E1, [3-(2′-Cyclopropyl-3-hydroxymethyl-biphenyl-4-yl)-pyrrolidin-1-yl]-(6-methoxymethyl-pyridin-2-yl)-methanone] | 7.00 to 8.00 | – | – | – | – | – | –
9 | CC(C)c1ccccc1-c1ccc(C2CCN(C(=O)c3ccccn3)C2)c(CO)c1 (stereo not drawn) [Compound 2-42] | – | 22.7 | 7.00 to 8.00 | 18300 | > 19.7 | 11.7 | –
10 | CCc1ccccc1-c1ccc(C2CCN(C(=O)c3cc(Cl)ccn3)C2)c(CO)c1 (stereo not drawn) [Compound 2-48, (4-chloropyridin-2-yl)(3-(2′-ethyl-3-(hydroxymethyl)biphenyl-4-yl)pyrrolidin-1-yl) methanone] | – | 69.3 | 7.00 to 8.00 | 13400 | > 8 | 7.54 | –
11 | CC(C)c1ccccc1Oc1ccc(C2CCN(C(=O)c3ccc(F)cn3)C2)c(CO)c1 (stereo not drawn) [Compound 2-16, (5-fluoropyridin-2-yl)(3-(2-(hydroxymethyl)-4-(2-isopropylphenoxy)phenyl)pyrrolidin-1-yl)methanone] | – | 29.7 | 7.00 to 8.00 | 9650 | ~4.7 (≈ 2.04 µg/mL) | 5.3 | IC50 (hTRPV3 [2]; Phase 2 current, read-out: hTRPV3 (nM) Phase 2): 25.7 nM; pIC50 (hTRPV3 [2]; Phase 2 current, read-out: hTRPV3 Patch P2 Inwd): 7.00 to 8.00
12 | CCc1ccccc1-c1ccc(C2CCN(C(=O)c3ccc(F)cn3)C2)c(CO)c1 (stereo not drawn) [Compound 2-28, (3-(2′-ethyl-3-(hydroxymethyl)biphenyl-4-yl)pyrrolidin-1-yl)(5-fluoropyridin-2-yl)methanone] | – | 19.6 | 7.00 to 8.00 | 13700 | > 15 | 18.4 | –
13 | CC(C)c1ccccc1-c1ccc([C@@H]2CCN(C(=O)c3ccc(F)cn3)C2)c(CO)c1 [KM-002-E2] | 7.00 to 8.00 | – | – | – | – | – | –
14 | Cc1cncc(C(=O)N2CC[C@H](c3ccc(-c4ccccc4C4CC4)cc3CO)C2)n1 (stereo in doubt) [KM-032-E1, [3-(2′-Cyclopropyl-3-hydroxymethyl-biphenyl-4-yl)-pyrrolidin-1-yl]-(6-methyl-pyrazin-2-yl)-methanone] | 7.00 to 8.00 | – | – | – | – | – | –
15 | COCc1cccc(C(=O)N2CCC(c3ccc(-c4ccccc4C4CC4)cc3CO)C2)n1 (stereo not drawn) [KM-036] | 7.00 to 8.00 | – | – | – | – | – | –
16 | CC(C)c1ccccc1-c1ccc([C@H]2CCN(C(=O)c3ccc(F)cn3)C2)c(CO)c1 (stereo in doubt) [KM-002-E1, (5-Fluoro-pyridin-2-yl)-[3-(3-hydroxymethyl-2′-isopropyl-biphenyl-4-yl)-pyrrolidin-1-yl]-methanone] | > 8.00 | – | – | – | – | – | –
17 | Cc1nc(C(=O)N2CC[C@H](c3ccc(-c4ccccc4C4CC4)cc3CO)C2)ccc1O (stereo in doubt) [KM-023-E1, [3-(2′-Cyclopropyl-3-hydroxymethyl-biphenyl-4-yl)-pyrrolidin-1-yl]-(5-hydroxy-6-methyl-pyridin-2-yl)-methanone] | > 8.00 | – | – | – | – | – | –
18 | Cc1nc(C(=O)N2CCC(c3ccc(-c4cc(F)ccc4C4CC4)cc3CO)C2)ccc1O (stereo not drawn) [KM-085] | > 8.00 | – | – | – | – | – | –
19 | CCc1c(C)cccc1-c1ccc(C2CCN(C(=O)c3ccc(F)cn3)C2)c(CO)c1 (stereo not drawn) [Compound 2-64, (3-(2′-ethyl-3-(hydroxymethyl)-3′-methylbiphenyl-4-yl)pyrrolidin-1-yl)(5-fluoropyridin-2-yl)methanone] | – | 18 | 7.00 to 8.00 | 10100 | > 15.7 | 6.38 | –

— patent US12435061B2 (priority 2020, dated 2025)
